Here are results for 15 molecules from patent US7902226B2, “Dehalogeno-compounds” (Daiichi Pharmaceutical Co., Ltd., priority 2000, dated 2011).

Series [1] deals with Str. pyogenes, G-36. Kind of series: Antibacterial activity (MIC), standard method of the Japan Society of Chemotherapy. It is filed as cell-based. To be noted: Streptococcus pyogenes, G36. As for the experimental part: (§1) Antibacterial activities of the compounds of this invention were measured in accordance to the standard method designated by the Japan Society of Chemotherapy, with the results shown as MIC values (microgram/ml) units in the following table. For comparison with the MIC values of the compounds of this invention, MIC values of levofloxacin (LVFX), ciprofloxacin (CPFX) and 7-[3-(R)-(1-aminocyclopropyl)pyrrolidin-1-yl]-6-fluoro-1-[2-(S)-fluoro-1-(R)-cyclopropyl]-8-methyl-1,4-dihydro-4-oxoquinoline-3-carboxylic acid (Reference drug 1), which is described in PCT/JP96/00208, are also shown in the table.

Series [2] concerns Ps. aeruginosa, 32121. The description is as above. The format is cell-based. The note with it: Pseudomonas aeruginosa. The procedure: as §1
For series [3], the system named is S. aureus, 209P. The description is as above. The format is cell-based. To be noted: Staphylococcus aureus. The procedure: as §1
Series [4] relates to S. aureus, 870307. The series is described as above. It is filed as cell-based. The note with it: Staphylococcus aureus. As for the experimental part:
as §1

The test system of series [5] is K. pneumoniae, Type 1. The series is described as above. The format is cell-based. The note with it: Klebsiella pneumoniae, TYPE1. As for the experimental part:
as §1

The test system of series [6] is E. coli, NIHJ. The description is as above. The format is cell-based. To be noted: Escherichia coli. As for the experimental part:
as §1

Series [7] relates to Str. faecalis, ATCC 19433. Described as above. To be noted: Enterococcus faecalis, ATCC19433. It is filed as cell-based. As for the experimental part: as §1
For series [8], the system named is Ps. aeruginosa, 32104. Described as above. The format is cell-based. The note with it: Pseudomonas aeruginosa. The procedure:
as §1

In series [9] the test system is S. flexneri, 2A 5503. The series is described as above. The format is cell-based. The note with it: Shigella flexneri, 2A5503. As for the experimental part: as §1
Series [10] has as its system Ps. maltophilia, IID-1275. Described as above. The format is cell-based. To be noted: Stenotrophomonas maltophilia, IID1275. As for the experimental part:
as §1

For series [11], the system named is Pr. vulgalis, 08601. Described as above. It is filed as cell-based. The procedure: as §1
In series [12] the test system is S. epidermidis, 56500. The series is described as above. The format is cell-based. To be noted: Staphylococcus epidermidis. The procedure: as §1
For series [13], the system named is Ser. marcescens, 10100. Described as above. To be noted: Serratia marcescens. It is filed as cell-based. The procedure:
as §1

The subject of series [14] is Str. pneumoniae J24. Described as above. The format is cell-based. The note with it: Streptococcus pneumoniae. As for the experimental part: as §1

≈ marks a conversion by molar mass, not a printed value. Structures can show the parent of a compound that is named as a salt.

As to `COc1c(N2CC[C@@H](C3(N)CCC3)C2)ccc2c(=O)c(C(=O)O)cn([C@@H]3C[C@@H]3F)c12` (hydrate or solvate) [Example 19, 7-[3-(R)-(1-aminocyclobutyl)pyrrolidin-1-yl]-1-[2-(S)-fluoro-1-(R)-cyclopropyl]-8-methoxy-1,4-dihydro-4-oxoquinoline-3-carboxylic acid], the melting point (commonly the temperature of the solid-liquid transition) amounted to 174 °C.

In the case of `COc1c(N2CC[C@@H](C3(N)CC3)C2)cc(N)c2c(=O)c(C(=O)O)cn([C@@H]3C[C@@H]3F)c12` [Example 8, 5-amino-7-[3-(R)-(1-aminocyclopropyl)pyrrolidin-1-yl]-1-[2-(S)-fluoro-1-(R)-cyclopropyl]-1,4-dihydro-8-methoxy-4-oxoquinoline-3-carboxylic acid], the melting point is 172 to 178 °C (dec.).

`NC1([C@@H]2CCN(c3ccc4c(=O)c(C(=O)O)cn([C@@H]5C[C@@H]5F)c4c3Cl)C2)CC1` [Example 16, 7-[3-(R)-(1-aminocyclopropyl)pyrrolidin-1-yl]-8-chloro-1-[2-(S)-fluoro-1-(R)-cyclopropyl]-1,4-dihydro-4-oxoquinoline-3-carboxylic acid] registered a melting point of 128 to 130 °C.

The molecule `Cc1c(N2CC[C@@H](C3(N)CC3)C2)ccc2c(=O)c(C(=O)O)cn([C@@H]3C[C@@H]3F)c12` (as salt: HCl) (hydrate or solvate) [Example 1, 7-[3-(R)-(1-aminocyclopropyl)pyrrolidin-1-yl]-1-[2-(S)-fluoro-1-(R)-cyclopropyl]-1,4-dihydro-8-methyl-4-oxoquinoline-3-carboxylic acid] had a melting point of 228 to 230 °C.

For the molecule `NC1([C@@H]2CCN(c3ccc4c(=O)c(C(=O)O)cn([C@@H]5C[C@@H]5F)c4c3)C2)CC1` [Example 5, 7-[3-(R)-(1-aminocyclopropyl)pyrrolidin-1-yl]-1-[2-(S)-fluoro-1-(R)-cyclopropyl]-1,4-dihydro-4-oxoquinoline-3-carboxylic acid], the melting point lay in the range of 251 to 253 °C.

With `O=C(O)c1cn(C2CC2)c2cc(N3CCNCC3)c(F)cc2c1=O` [CPFX, ciprofloxacin, reference compound], the MIC (in general, the smallest concentration in the dilution series that meets the test's criterion for growth inhibition) in series [1] is 1.56 µg/mL (≈ 4.71 µM); in series [2], 0.025 µg/mL (≈ 0.0754 µM); in series [3] it was 0.1 µg/mL (≈ 0.302 µM); in [4] it was 3.13 µg/mL (≈ 9.45 µM); in series [5] it was 0.025 µg/mL (≈ 0.0754 µM); in [6] it was no more than 0.003 µg/mL. In addition, the MIC is 0.78 µg/mL (≈ 2.35 µM) in series [7]; 0.005 µg/mL (≈ 0.0151 µM) in series [8]; 0.006 µg/mL (≈ 0.0181 µM) in series [9]; 0.78 µg/mL (≈ 2.35 µM) in series [10]; no more than 0.003 µg/mL in series [11]; 0.2 µg/mL (≈ 0.604 µM) in [12]. Besides, the figures for the MIC in series [13] and in series [14] were 0.025 µg/mL (≈ 0.0754 µM) and 0.1 µg/mL (≈ 0.302 µM), respectively.

Take `C[C@H]1COc2c(N3CC[C@@H](C4(N)CC4)C3)ccc3c(=O)c(C(=O)O)cn1c23` (as salt: salt) [Example 9, 10-[3-(R)-(1-aminocyclopropyl)pyrrolidin-1-yl]-2,3-dihydro-3-(S)-methyl-7-oxo-7H-pyrido[1,2,3-de][1,4]benzoxazine-6-carboxylic acid]: the melting point is 249 to 252 °C (dec.).

Take `C[C@H]1COc2c(N3CCN(C)CC3)c(F)cc3c(=O)c(C(=O)O)cn1c23` [LVFX, levofloxacin, reference compound]: the MIC in [1] was 0.2 µg/mL (≈ 0.553 µM); in [2], 0.1 µg/mL (≈ 0.277 µM); in series [3], 0.2 µg/mL (≈ 0.553 µM); in series [4], greater than 6.25 µg/mL; in series [5], 0.1 µg/mL (≈ 0.277 µM); in series [6], 0.012 µg/mL (≈ 0.0332 µM). Besides, the MIC in [7] is 0.78 µg/mL (≈ 2.16 µM); in series [8], 0.2 µg/mL (≈ 0.553 µM); in [9] it was 0.025 µg/mL (≈ 0.0692 µM); in series [10] it was 0.39 µg/mL (≈ 1.08 µM); in [11], 0.012 µg/mL (≈ 0.0332 µM); in [12] it was 0.39 µg/mL (≈ 1.08 µM). Also, the MIC in [13] turned out to be 0.1 µg/mL (≈ 0.277 µM); in [14], 0.78 µg/mL (≈ 2.16 µM).

On to `NC1([C@@H]2CCN(c3ccc4c(=O)c(C(=O)O)cn(C5CC5)c4c3OC(F)F)C2)CC1` [Example 6, 7-[3-(R)-(1-aminocyclopropyl)pyrrolidin-1-yl]-1-cyclopropyl-8-difluoromethoxy-1,4-dihydro-4-oxoquinoline-3-carboxylic acid], for which the melting point lay within 206 to 207.5 °C.

In the case of `CNC1([C@@H]2CCN(c3ccc4c(=O)c(C(=O)O)cn5c4c3OC[C@@H]5C)C2)CC1` [Example 13, 2,3-dihydro-3-(S)-methyl-10-[3-(R)-[1-(methylamino)cyclopropyl]pyrrolidin-1-yl]-7-oxo-7H-pyrido[1,2,3-de][1,4]benzoxazine-6-carboxylic acid], the melting point lay within 227 to 229 °C.

Molecule `NC1([C@@H]2CCN(c3ccc4c(=O)c(C(=O)O)cn([C@@H]5C[C@@H]5F)c4n3)C2)CC1` [Example 4, 7-[3-(R)-(1-aminocyclopropyl)pyrrolidin-1-yl]-1-[2-(S)-fluoro-1-(R)-cyclopropyl]-1,4-dihydro-4-oxo-1,8-naphthylidine-3-carboxylic acid] had a melting point of 216 to 218 °C.

With `COc1c(N2CC[C@@H](C3(N)CC3)C2)ccc2c(=O)c(C(=O)O)cn([C@@H]3C[C@@H]3F)c12` [Example 2, 7-[3-(R)-(1-aminocyclopropyl)pyrrolidin-1-yl]-1-[2-(S)-fluoro-1-(R)-cyclopropyl]-1,4-dihydro-8-methoxy-4-oxoquinoline-3-carboxylic acid], the MIC was 0.006 µg/mL (≈ 0.0149 µM) in series [1]; 0.05 µg/mL (≈ 0.125 µM) in [2]; no more than 0.003 µg/mL in series [3]; 0.05 µg/mL (≈ 0.125 µM) in series [4]; 0.05 µg/mL (≈ 0.125 µM) in [5]; no more than 0.003 µg/mL in [6]. In addition, the MIC is 0.025 µg/mL (≈ 0.0623 µM) in series [7]; 0.2 µg/mL (≈ 0.498 µM) in [8]; 0.012 µg/mL (≈ 0.0299 µM) in series [9]; 0.2 µg/mL (≈ 0.498 µM) in series [10]; 0.012 µg/mL (≈ 0.0299 µM) in [11]; 0.012 µg/mL (≈ 0.0299 µM) in series [12]. The MIC in series [13] worked out at 0.1 µg/mL (≈ 0.249 µM); in series [14], 0.006 µg/mL (≈ 0.0149 µM).

Consider `Cc1c(N2CC[C@@H](C3(N)CC3)C2)cc(N)c2c(=O)c(C(=O)O)cn([C@@H]3C[C@@H]3F)c12` [Example 7, 5-amino-7-[3-(R)-(1-aminocyclopropyl)pyrrolidin-1-yl]-1-[2-(S)-fluoro-1-(R)-cyclopropyl]-1,4-dihydro-8-methyl-4-oxoquinoline-3-carboxylic acid], for which the melting point is 240 to 242 °C (dec.).

The molecule `Cc1c(N2CC[C@@H](C3(N)CC3)C2)cc(O)c2c(=O)c(C(=O)O)cn([C@@H]3C[C@@H]3F)c12` [Example 17, 7-[3-(R)-(1-aminocyclopropyl)pyrrolidin-1-yl]-1-[2-(S)-fluoro-1-(R)-cyclopropyl]-5-hydroxy-8-methyl-1,4-dihydro-4-oxoquinoline-3-carboxylic acid] returned a melting point of 203 to 206 °C.

Molecule `N#Cc1c(N2CC[C@@H](C3(N)CC3)C2)ccc2c(=O)c(C(=O)O)cn([C@@H]3C[C@@H]3F)c12` [Example 18, 7-[3-(R)-(1-aminocyclopropyl)pyrrolidin-1-yl]-8-cyano-1-[2-(S)-fluoro-1-(R)-cyclopropyl]-1,4-dihydro-4-oxoquinoline-3-carboxylic acid] showed a melting point of 138 to 140 °C.
